Data as given in patent US20240041971A1, “A PROCESS OF PREPARATION OF FLOUR MIX AND ITS USE FOR THE TREATMENT OF DIABETES” (priority 2020, published 2024).

Key:
Type in all cases: in vivo, Rats
[1] = system: Streptozotocin-nicotinamide induced Type-2 diabetes (T2DM); assay: Streptozotocin-nicotinamide induced Type-2 diabetes: plasma glucose; settings: 5 mg/kg oral gavage
Protocol: (§1) The objective of the study is to evaluate pharmaceutical preparation in Type-2 diabetes mellitus (T2DM) and to compare efficacy of these in comparison to standard hypoglycemic agent pioglitazone.
(§2) Experimental model: Streptozotocin-nicotinamide induced Type-2 diabetes (T2DM): Single intraperitoneal injection of nicotinamide and streptozotocin was administered. Dose: STZ (45 mg/kg for rats)+Nicotinamide (230 mg/kg for rats) for T2DM pharmaceutical preparation (45.90 & 180 mg/kg). Route: STZ & Nicotinamide were administered intraperitoneally (i.p.). Pharmaceutical preparation & pioglitazone were administered per orally (oral gavage). Volume Administered: Rat—5 mL/kg Animals: Rats of Wistar strain weighing from 150-200 g of either sex used for the study. The animals were housed under optimal laboratory conditions, maintained on a natural (12 h) light and (12 h) dark cycle and had free access to food and water ad libitum. Animals were acclimatized to laboratory conditions before the tests. Study Design: Animals were divided into 6 groups of 5-8 animals in each group: • a) Group I: Control or vehicle treated group • b) Group II: Type 2 diabetic group • c) Group III: Diabetic animals+pharmaceutical preparation (45 mg/kg) • d) Group IV: Diabetic animals+pharmaceutical preparation (90 mg/kg) • e) Group V: Diabetic animals +pharmaceutical preparation (180 mg/kg) • f) Group VI: Diabetic animals+Pioglitazone (5 mg/kg)
(§3) Pharmaceutical preparation was administered after confirmation of diabetes for 28 days.
Parameters to be evaluated: The […]) Body weight, water and food intake was monitored. • b) Blood Glucose Level: Glucose was estimated using diagnostic kits by GOD-POD method and the experiment was conducted following the manufacturer's instructions. • c) Estimation of Glycosylated Haemoglobin (HbA1c): HbA1c is a good indicator of protein glycosylation. Excess of glucose conjugates with proteins to form glycosylated moieties. It was estimated by ion-resin method using commercial kits.

[2] = system: Streptozotocin-nicotinamide induced Type-2 diabetes (T2DM); assay: Streptozotocin-nicotinamide induced Type-2 diabetes: Glycosylated Haemoglobin (HbA1c); settings: 5 mg/kg oral gavage
Protocol: as §1, §2, §3
Parameters to be evaluated: The following parameters were evaluated after confirmation of diabetes on day 1, 7, 14, 21 and 28 days. • a) Body weight, water and food intake was monitored. • b) Blood Glucose Level: Glucose was estimated using diagnostic kits by GOD-POD method and the experiment was conducted following the manufacturer's instructions. • c) Estimation of Glycosylated Haemoglobin (HbA1c): HbA1c is a good indicator of protein glycosylation. Excess of glucose conjugates with proteins to form glycosylated moieties. It was estimated by ion-resin method using commercial kits.

[3] = system: Streptozotocin (STZ) induced type 1 diabetes (T1DM); assay: Streptozotocin (STZ) induced type 1 diabetes: plasma glucose, body weight, food intake, water intake, urine output; settings: 10 IU/kg subcutaneous
Protocol: The objective of the study is to evaluate the pharmaceutical preparation in Type-1 Diabetes Mellitus (T1DM) and to compare the efficacy in comparison to standard hypoglycemic agents as insulin. Experimental model: Streptozotocin (STZ) induced type 1 diabetes (T1DM). Dose: STZ (45 mg/kg for rats) for T1DM Route: STZ was administered intraperitoneally (i.p.). Pharmaceutical preparation was administered peroral (p.o.) in three doses. Volume Administered: Rat—5 ml/kg Animals: Rats of Wistar or Sprague Dawley strain weighing from 150-200 g of either sex. The animals were housed under optimal laboratory conditions, maintained on a natural (12 h) light and (12 h) dark cycle and have free access to food and water ad libitum. Animals were acclimatized to laboratory conditions before the tests. […] Parameters to be evaluated: The following parameters were evaluated at confirmation of diabetes and after 28 days of treatment. • a) Body weight, water and food intake was monitored weekly. • b) Blood Glucose Level: Glucose was estimated using diagnostic kits by GOD-POD method and the experiment was conducted following the manufacturer's instructions. • c) Oral Glucose Tolerance Test (OGTT): An oral glucose tolerance test was carried out in conscious rats. For this the rats was fasted overnight and glucose (2 g/kg b.w.) was given from 30% solution by oral gavage. Tail blood samples was collected before glucose load and sequentially for every half an hour after glucose load upto 90 minutes and was immediately analysed for glucose. • d) Measurement of Plasma Insulin Level: Insulin was estimated using insulin ELISA kit (LINCO) and the experiment was conducted following the manufacturer's instructions. It is a solid phase sandwich enzyme-linked immunosorbent assay (ELISA), which uses a microtitre plate reader at 450 nm. Concentrations of insulin were calculated from plotted standard curves. All results were expressed as Mean±SEM. The intergroup variation was measured by one-way analysis of variance (ANOVA) followed by Tukey's test. Statistical significance was considered at P<0.05. The statistical analysis was done using the SPSS Statistical Software version 16 (SPSS Inc. 233 South Wacker Drive, 11th Floor Chicago, IL 60606-6412).

[4] = system: Streptozotocin (STZ) induced type 1 diabetes (T1DM); assay: Oral Glucose Tolerance Test (OGTT) in STZ induced type 1 diabetes; settings: 10 IU/kg subcutaneous
Protocol: The objective of the study is to evaluate the pharmaceutical preparation in Type-1 Diabetes Mellitus (T1DM) and to compare the efficacy in comparison to standard hypoglycemic agents as insulin. Experimental model: Streptozotocin (STZ) induced type 1 diabetes (T1DM). Dose: STZ (45 mg/kg for rats) for T1DM Route: STZ was administered intraperitoneally (i.p.). Pharmaceutical preparation was administered peroral (p.o.) in three doses. Animals: Rats of Wistar or Sprague Dawley strain weighing from 150-200 g of either sex. The animals were housed under optimal laboratory conditions, maintained on a natural (12 h) light and (12 h) dark cycle and have free access to food and water ad libitum. Animals were acclimatized to laboratory conditions before the tests. Study Design: Animals were divided into 8 groups of 10 animals in each group. • a) Group I: Control or vehicle treated group • b) Group II: Type 1 diabetic group • c) Group III: pharmaceutical preparation (90 mg/kg)+Diabetic animals • d) Group IV: pharmaceutical preparation (180 mg/kg)+Diabetic animals • e) Group V: pharmaceutical preparation (360 mg/kg)+Diabetic animals • f) Group VI: Satcol (60 mg/kg)+Diabetic animals • g) Group VII: pharmaceutical preparation (90 mg/kg)+Insulin (10IU)+Diabetic animals • h) Group VIII: Insulin (10IU)+Diabetic animals Drugs were administered for 28 days after confirmation of diabetes. Parameters to be evaluated: The following parameters were evaluated at confirmation of diabetes and after 28 days of treatment. • a) Body weight, water and food intake was monitored weekly. • b) Blood Glucose Level: Glucose was estimated using diagnostic kits by GOD-POD method and the experiment was conducted following the manufacturer's instructions. • c) Oral Glucose Tolerance Test (OGTT): An oral glucose tolerance test was carried out in conscious rats. For this the rats was fasted overnight and glucose (2 g/kg b.w.) was given from 30% solution by oral gavage. […] for glucose. • d) Measurement of Plasma Insulin Level: Insulin was estimated using insulin ELISA kit (LINCO) and the experiment was conducted following the manufacturer's instructions. It is a solid phase sandwich enzyme-linked immunosorbent assay (ELISA), which uses a microtitre plate reader at 450 nm. Concentrations of insulin were calculated from plotted standard curves. All results were expressed as Mean±SEM. The intergroup variation was measured by one-way analysis of variance (ANOVA) followed by Tukey's test. Statistical significance was considered at P<0.05. The statistical analysis was done using the SPSS Statistical Software version 16 (SPSS Inc. 233 South Wacker Drive, 11th Floor Chicago, IL 60606-6412).

[5] = system: Streptozotocin (STZ) induced type 1 diabetes (T1DM); assay: Plasma insulin level (ELISA) in STZ induced type 1 diabetes; settings: 10 IU/kg subcutaneous
Protocol: The objective of the study is to evaluate the pharmaceutical preparation in Type-1 Diabetes Mellitus (T1DM) and to compare the efficacy in comparison to standard hypoglycemic agents as insulin. Experimental model: Streptozotocin (STZ) induced type 1 diabetes (T1DM). Dose: STZ (45 mg/kg for rats) for T1DM Route: STZ was administered intraperitoneally (i.p.). Pharmaceutical preparation was administered peroral (p.o.) in three doses. Animals: Rats of Wistar or Sprague Dawley strain weighing from 150-200 g of either sex. The animals were housed under optimal laboratory conditions, maintained on a natural (12 h) light and (12 h) dark cycle and have free access to food and water ad libitum. Animals were acclimatized to laboratory conditions before the tests. Study Design: Animals were divided into 8 groups of 10 animals in each group. • a) Group I: Control or vehicle treated group • b) Group II: Type 1 diabetic group • c) Group III: pharmaceutical preparation (90 mg/kg)+Diabetic animals • d) Group IV: pharmaceutical preparation (180 mg/kg)+Diabetic animals • e) Group V: pharmaceutical preparation (360 mg/kg)+Diabetic animals • f) Group VI: Satcol (60 mg/kg)+Diabetic animals • g) Group VII: pharmaceutical preparation (90 mg/kg)+Insulin (10IU)+Diabetic animals • h) Group VIII: Insulin (10IU)+Diabetic animals Drugs were administered for 28 days after confirmation of diabetes. Parameters to be evaluated: […]) Body weight, water and food intake was monitored weekly. • b) Blood Glucose Level: Glucose was estimated using diagnostic kits by GOD-POD method and the experiment was conducted following the manufacturer's instructions. • c) Oral Glucose Tolerance Test (OGTT): An oral glucose tolerance test was carried out in conscious rats. For this the rats was fasted overnight and glucose (2 g/kg b.w.) was given from 30% solution by oral gavage. Tail blood samples was collected before glucose load and sequentially for every half an hour after glucose load upto 90 minutes and was immediately analysed for glucose. • d) Measurement of Plasma Insulin Level: Insulin was estimated using insulin ELISA kit (LINCO) and the experiment was conducted following the manufacturer's instructions. It is a solid phase sandwich enzyme-linked immunosorbent assay (ELISA), which uses a microtitre plate reader at 450 nm. Concentrations of insulin were calculated from plotted standard curves. All results were expressed as Mean±SEM. The intergroup variation was measured by one-way analysis of variance (ANOVA) followed by Tukey's test. Statistical significance was considered at P<0.05. The statistical analysis was done using the SPSS Statistical Software version 16 (SPSS Inc. 233 South Wacker Drive, 11th Floor Chicago, IL 60606-6412).

For `CCc1ccc(CCOc2ccc(CC3SC(=O)NC3=O)cc2)nc1` (stereo not drawn) [Pio, Pioglitazone], the “Mean Plasma Glucose” value ([1]; Day 3) was 144 mg/dL, the “Mean Plasma Glucose” value ([1]; Day 7) was 149 mg/dL and the “Mean Plasma Glucose” value ([1]; Day 14) was 141 mg/dL. The “Mean Plasma Glucose” value ([1]; Day 21) was 132 mg/dL, the “Mean Plasma Glucose” value ([1]; Day 28) was 126 mg/dL and the “Glycosylated Hemoglobin” value ([2]; Day 1) was 6.66. For the same molecule, the “Glycosylated Hemoglobin” value ([2]; Day 7) was 10.78, the “Glycosylated Hemoglobin” value ([2]; Day 14) was 9.67 and the “Glycosylated Hemoglobin” value ([2]; Day 21) was 8.44. For the same molecule, the “Glycosylated Hemoglobin” value ([2]; Day 28) was 7.96.
In the case of Insulin, the “Mean Plasma Glucose” value ([3]; 6th Week) is reported as 226 ± 12.4 mg/dL, the “Mean Plasma Glucose” value ([3]; 10th Week) is reported as 233 ± 16.0 mg/dL and the “Food Intake” value ([3]; Day 1) is reported as 21 ± 0.66 gm. The “Mean Body Weight” value ([3]; Day 1) was 278 ± 3.7 gm, the “Mean Plasma Glucose” value ([3]; Day 1) was 352 ± 42.4 mg/dL and the “Urine Volume” value ([3]; Day 1) was 9 ± 0.63 mL. For the same molecule, the “Water Intake” value ([3]; Day 1) was 9 ± 0.95 mL, the “Food Intake” value ([3]; Day 7) was 23 ± 0.43 gm and the “Mean Body Weight” value ([3]; Day 7) was 277 ± 4.4 gm. For the same molecule, the “Mean Plasma Glucose” value ([3]; Day 7) was 249 ± 5.7 mg/dL, the “Urine Volume” value ([3]; Day 7) was 16 ± 1.91 mL and the “Water Intake” value ([3]; Day 7) was 14 ± 0.85 mL. The “Food Intake” value ([3]; Day 14) was 27 ± 0.58 gm, the “Mean Body Weight” value ([3]; Day 14) was 280 ± 3.9 gm and the “Mean Plasma Glucose” value ([3]; Day 14) was 222 ± 14.1 mg/dL. For the same molecule, the “Water Intake” value ([3]; Day 14) was 20 ± 0.86 mL, the “Food Intake” value ([3]; Day 21) was 30 ± 0.56 gm and the “Mean Body Weight” value ([3]; Day 21) was 279 ± 4.5 gm. For the same molecule, the “Mean Plasma Glucose” value ([3]; Day 21) was 233 ± 13.3 mg/dL, the “Urine Volume” value ([3]; Day 21) was 26 ± 3.61 mL and the “Water Intake” value ([3]; Day 21) was 25 ± 2.77 mL. The “Food Intake” value ([3]; Day 28) was 34 ± 0.93 gm, the “Mean Body Weight” value ([3]; Day 28) was 279 ± 4.9 gm and the “Mean Plasma Glucose” value ([3]; Day 28) was 211 ± 8.6 mg/dL. For the same molecule, the “Urine Volume” value ([3]; Day 28) was 26 ± 4.43 mL, the “Water Intake” value ([3]; Day 28) was 31 ± 3.08 mL and the “OGTT Mean Plasma Glucose” value ([4]; 0.5 hour) was 389 ± 95.77 mg/dL. The “OGTT Mean Plasma Glucose” value ([4]; 2.0 hour) was 315 ± 102.13 mg/dL, the “OGTT Mean Plasma Glucose” value ([4]; 4.0 hour) was 311 ± 217.52 mg/dL and the “OGTT Mean Plasma Glucose” value ([4]; 8.0 hour) was 233 ± 29.73 mg/dL. The “Percentage Change in plasma insulin” value ([5]; Day 1) was 0%, the “Percentage Change in plasma insulin” value ([5]; Day 7) was −42% and the “Percentage Change in plasma insulin” value ([5]; Day 14) was −39%. The “Percentage Change in plasma insulin” value ([5]; Day 21) was −37% and the “Percentage Change in plasma insulin” value ([5]; Day 28) was −34%.
